# Key:
# [1] = target: T1, PLA2G15 (Phospholipase A2 Group XV) (Homo sapiens, UniProt Q8NCC3); conditions: Hinkovska-Galcheva et al. (2021); read-out: IC50, inhibition of PLA2G15 activity; cited from earlier work
# T1 sequence (Q8NCC3 34-412): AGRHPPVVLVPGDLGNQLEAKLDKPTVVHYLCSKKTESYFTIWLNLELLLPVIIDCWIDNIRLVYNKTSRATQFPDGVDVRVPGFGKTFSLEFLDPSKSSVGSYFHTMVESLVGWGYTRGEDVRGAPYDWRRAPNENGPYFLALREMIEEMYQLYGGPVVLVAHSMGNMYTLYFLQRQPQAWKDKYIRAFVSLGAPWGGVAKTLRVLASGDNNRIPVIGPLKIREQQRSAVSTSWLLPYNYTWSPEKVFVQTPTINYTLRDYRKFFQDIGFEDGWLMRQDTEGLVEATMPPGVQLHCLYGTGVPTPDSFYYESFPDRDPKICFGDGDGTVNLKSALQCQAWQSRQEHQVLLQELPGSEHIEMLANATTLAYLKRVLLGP
# PLA2G15 = target: T2, PLA2G15 (Cricetulus griseus, UniProt G3HKV9); assay: PLA2G15 inhibition study: fosinopril spiked in DP2 material, PS20 HPLC-CAD subspecies method; type: biochemical; conditions: room temperature in dark for two weeks
# T2 construct: PLA2 in the liquid compositions described herein is derived from a CHO cell line; endogenous in cells; host or cells: CHO cells expressing risankizumab (host-cell protein carried into drug substance/drug product)
# T2 sequence (G3HKV9 34-412): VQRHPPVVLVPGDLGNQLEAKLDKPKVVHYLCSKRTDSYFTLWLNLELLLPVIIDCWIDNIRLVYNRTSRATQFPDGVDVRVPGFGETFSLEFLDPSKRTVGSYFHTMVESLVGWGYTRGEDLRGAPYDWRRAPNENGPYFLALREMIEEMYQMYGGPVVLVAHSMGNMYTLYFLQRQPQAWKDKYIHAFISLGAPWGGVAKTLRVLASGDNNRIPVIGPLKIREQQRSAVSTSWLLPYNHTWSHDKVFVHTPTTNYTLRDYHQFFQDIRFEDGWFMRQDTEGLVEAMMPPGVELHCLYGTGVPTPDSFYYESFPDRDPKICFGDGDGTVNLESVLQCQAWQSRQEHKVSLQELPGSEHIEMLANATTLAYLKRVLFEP
# Experimental: Fosinopril is an angiotensin converting enzyme (ACE) inhibitor, which is been used to treat hypertension and some types of chronic heart failure (Murdoch et al. (1992) Drugs 43:123-140). […] All samples (including non-spiked samples) were incubated at room temperature in the dark for two weeks. PS20 degradation levels in those samples were tested with a PS20 subspecies method. PS20 degradation levels in those samples were compared with negative controls (non-spiked samples kept at room temperature in dark for two weeks) and positive controls (non-spiked samples kept at −80° C. before testing). […] The chemical structure of fosinopril is shown below.
# Fosinopril sodium was dissolved in Mill-Q water at a concentration of 0.5 mg/mL. The solution was aseptically filtered with a 0.22 syringe filter before use. During the filtration, the syringe filter was flushed with Mill-Q water and then with the 0.5 mg/mL fosinopril water solution. Lower concentrations of fosinopril water solutions were aseptically diluted with Mill-Q water. More detailed sample preparation can be found in Table 22. All vials were glass vials, and solutions were well mixed before incubation. Samples were incubated at room temperature in dark for two weeks before testing.
# A PS20 HPLC-CAD subspecies method was used to test the PS20 levels qualitatively as well as profiles in all samples. Solutions were transferred to HPLC vials and diluted with Milli-Q water (1:1 dilution). All HPLC vials were mixed well before placed in an HPLC autosampler for testing. Sample descriptions and labels can be found in Table 23.
compound,measurement,setting,value
CCC(=O)O[C@@H](O[P@](=O)(CCCCc1ccccc1)CC(=O)N1C[C@H](C2CCCCC2)C[C@H]1C(=O)O)C(C)C [fosinopril],IC50,[1],~180 nM
same,protection (inhibition) of PS20 degradation in the DP2 material,"PLA2G15; 0.9 μg/mL spiking level, vs non-spiked control",reduction of PS20 degradation has been observed
same,protection (inhibition) of PS20 degradation in the DP2 material,"PLA2G15; 0.9 μg/mL spiking level, vs non-spiked control, listed as Fosinopril",showed protection (inhibition)
same,protection (inhibition) of PS20 degradation in the DP2 material,PLA2G15; 0.9-83.3 ug/mL spiked,Dose (concentration) dependent protection (inhibition)
same,protection (inhibition) of PS20 degradation in the DP2 material,"PLA2G15; 0.9-83.3 ug/mL spiked, listed as Fosinopril",dose dependent protection (inhibition)
